Data on 34 compounds can be found in patent US9511058B2, “Methods for using carboxamide, sulfonamide and amine compounds” (Rigel Pharmaceuticals, Inc., priority 2010, dated 2016).

Molecules are shown by their SMILES. Bounds are passed on as bounds.

The first test concerns the target AMPK. Description: AMPK activation, enzyme-linked immunosorbent assay. The format is biochemical. The note with it: compounds of Table 1 (Table 6).
Consider `N#Cc1ccccc1CN1CCC(NC(=O)c2cc3ccc(OC4CCN(c5ccc(C(F)(F)F)cc5)CC4)cc3o2)CC1` [1-98, N-(1-(2-cyanobenzyl)piperidin-4-yl)-6-(1-(4-(trifluoromethyl)phenyl)piperidin-4-yloxy)benzofuran-2-carboxamide], for which the EC50 (as a rule, the concentration giving half of the maximal effect) is under 100 nM. Same read-out and setting: the result for `N#Cc1ccc(CN2CCC(NC(=O)c3ccc(OC4CCN(c5ccc(C(F)(F)F)cc5)CC4)cn3)CC2)cc1` [1-4, N-(1-(4-cyanobenzyl)piperidin-4-yl)-5-(1-(4-(trifluoromethyl)phenyl)piperidin-4-yloxy)picolinamide] reads under 100 nM; that for `O=C(NC1CCNCC1)c1cc2ccc(OC3CCN(c4ccc(C(F)(F)F)cc4)CC3)cc2s1` [1-141, N-(piperidin-4-yl)-6-(1-(4-(trifluoromethyl)phenyl)piperidin-4-yloxy)benzo[b]thiophene-2-carboxamide], 100 to 500 nM; that for `CC(C)(C)OC(=O)N1CC[C@H](NC(=O)c2ccc(OC3CCN(c4ccc(C(F)(F)F)cc4)CC3)cn2)C1` [1-26, (S)-tert-butyl 3-(5-(1-(4-(trifluoromethyl)phenyl)piperidin-4-yloxy)picolinamido)pyrrolidine-1-carboxylate], 100 to 500 nM. Still for that read-out and setting: the value for `O=C(NC1CCN(Cc2ccncc2)CC1)c1cc2cc(OC3CCN(Cc4ccc(Cl)cc4)CC3)ccc2o1` [1-77, 5-(1-(4-chlorobenzyl)piperidin-4-yloxy)-N-(1-(pyridin-4-ylmethyl)piperidin-4-yl)benzofuran-2-carboxamide] was 100 to 500 nM; that for `CN(C(=O)c1cc2cc(OC3CCN(c4ccc(C(F)(F)F)cc4)CC3)ccc2o1)C1CCN(Cc2ccccn2)CC1` [1-117, N-methyl-N-(1-(pyridin-2-ylmethyl)piperidin-4-yl)-5-(1-(4-(trifluoromethyl)phenyl)piperidin-4-yloxy)benzofuran-2-carboxamide] was under 100 nM. The same measure, in the same setting: the result for `Cc1c(C(=O)NC2CCN(Cc3ccc(F)cc3)CC2)oc2cc(OC3CCN(c4ccc(C(F)(F)F)cc4)CC3)ccc12` [1-63, N-(1-(4-fluorobenzyl)piperidin-4-yl)-3-methyl-6-(1-(4-(trifluoromethyl)phenyl)piperidin-4-yloxy)benzofuran-2-carboxamide] reads under 100 nM.

`O=C(NC1CCNCC1)c1cc2ccc(OC3CCN(c4ccc(C(F)(F)F)cc4)CC3)cc2o1` [1-84, N-(piperidin-4-yl)-6-(1-(4-(trifluoromethyl)phenyl)piperidin-4-yloxy)benzofuran-2-carboxamide] yielded an EC50 of 5000 to 10000 nM. On the same count and under the same terms, the result for `FC(F)(F)c1ccc(N2CCC(Oc3ccc4c(c3)CCC4NC3CCN(Cc4ccncc4)CC3)CC2)cc1` (stereo not shown) [1-158, 1-(pyridin-4-ylmethyl)-N-(5-(1-(4-(trifluoromethyl)phenyl)piperidin-4-yloxy)-2,3-dihydro-1H-inden-1-yl)piperidin-4-amine] reads 100 to 500 nM. `CC(C)(C)OC(=O)N1CC[C@@H](NC(=O)c2cc3cc(OC4CCN(c5ccc(C(F)(F)F)cc5)CC4)ccc3o2)C1` [1-120, (R)-tert-butyl 3-(5-(1-(4-(trifluoromethyl)phenyl)piperidin-4-yloxy)benzofuran-2-carboxamido)pyrrolidine-1-carboxylate] showed an EC50 of 1000 to 5000 nM.

As for `O=C(NC1CCN(Cc2ccc(C(F)(F)F)cc2)CC1)c1cc2cc(OC3CCN(c4ccc(C(F)(F)F)cc4)CC3)ccc2o1` [1-100, N-(1-(4-(trifluoromethyl)benzyl)piperidin-4-yl)-5-(1-(4-(trifluoromethyl)phenyl)piperidin-4-yloxy)benzofuran-2-carboxamide], the EC50 was under 100 nM. Same read-out and setting: the result for `N#Cc1ccc(CN2CCC(NC(=O)c3cc(OC4CCN(c5ccc(C(F)(F)F)cc5)CC4)ccn3)CC2)cc1` [1-28, N-(1-(4-cyanobenzyl)piperidin-4-yl)-4-(1-(4-(trifluoromethyl)phenyl)piperidin-4-yloxy)picolinamide] reads under 100 nM. On to `CC(C)(C)OC(=O)N1CCC(NC(=O)c2ccc(OC3CCN(c4ccc(C(F)(F)F)cc4)CC3)nc2)CC1` [1-9, tert-butyl 4-(6-(1-(4-(trifluoromethyl)phenyl)piperidin-4-yloxy)nicotinamido)piperidine-1-carboxylate], for which the EC50 was in the range of 100 to 500 nM.

`O=C(NC1CCN(Cc2ccc(C(F)(F)F)cc2)CC1)c1cc2ccc(OC3CCN(c4ccc(C(F)(F)F)cc4)CC3)cc2o1` [1-99, N-(1-(4-(trifluoromethyl)benzyl)piperidin-4-yl)-6-(1-(4-(trifluoromethyl)phenyl)piperidin-4-yloxy)benzofuran-2-carboxamide] gave an EC50 of under 100 nM. On the same count and under the same terms, the result for `N#Cc1ccc(N2CCC(Oc3ccc(C(=O)NC4CCN(Cc5ccncc5)CC4)nc3)CC2)cc1` [1-1, 5-(1-(4-cyanophenyl)piperidin-4-yloxy)-N-(1-(pyridin-4-ylmethyl)piperidin-4-yl)picolinamide] reads 100 to 500 nM. Still for that read-out and setting: the result for `O=C(NC1CCN(Cc2cccnc2)CC1)c1sc2cc(OC3CCN(c4ccc(C(F)(F)F)cc4)CC3)ccc2c1Cl` [1-152, 3-chloro-N-(1-(pyridin-3-ylmethyl)piperidin-4-yl)-6-(1-(4-(trifluoromethyl)phenyl)piperidin-4-yloxy)benzo[b]thiophene-2-carboxamide] reads under 100 nM; that for `O=C(NC1CCNCC1)c1ccnc(OC2CCN(c3ccc(C(F)(F)F)cc3)CC2)c1` [1-19, N-(piperidin-4-yl)-2-(1-(4-(trifluoromethyl)phenyl)piperidin-4-yloxy)isonicotinamide], 1000 to 5000 nM; that for `O=C(NC1CCN(Cc2ccccn2)CC1)c1cc2ccc(OC3CCN(c4ccc(OC(F)(F)F)cc4)CC3)cc2o1` [1-92, N-(1-(pyridin-2-ylmethyl)piperidin-4-yl)-6-(1-(4-(trifluoromethoxy)phenyl)piperidin-4-yloxy)benzofuran-2-carboxamide], 500 to 1000 nM.

The same test, now with this note: compounds of Table 2 (Table 7).
Turning to `Cn1c2c(c3cc(C(=O)NC4CCN(Cc5ccc(C#N)cc5)CC4)ccc31)CN(Cc1ccc(C(F)(F)F)cc1)CC2` [2-16], the EC50 was under 500 nM. On the same count and under the same terms, the result for `O=C(NC1CCN(Cc2ccncc2)CC1)c1ccc2[nH]c3c(c2c1)CN(Cc1ccc(C(F)(F)F)cc1)CC3` [2-50, N-(1-(pyridin-4-ylmethyl)piperidin-4-yl)-2-(4-(trifluoromethyl)benzyl)-2,3,4,5-tetrahydro-1H-pyrido[4,3-b]indole-8-carboxamide] reads under 500 nM. Take `O=C(NC1CCN(Cc2ccc(C(F)(F)F)cc2)CC1)c1ccc2[nH]c3c(c2c1)CN(Cc1ccccc1)CC3` [2-5, 2-benzyl-N-(1-(4-trifluoromethylbenzyl)piperidin-4-yl)-2,3,4,5-tetrahydro-1H-pyrido[4,3-b]indole-8-carboxamide]: the EC50 is 1000 to 5000 nM.

Take `O=C(NC1CCN(Cc2ccccc2)CC1)c1ccc2[nH]c3c(c2c1)CN(C(=O)OCc1ccccc1)CC3` [2-2, benzyl 8-(1-(4-benzyl)piperidin-4-ylcarbamoyl)-3,4-dihydro-1H-pyrido[4,3-b]indole-2(5H)-carboxylate]: the EC50 was in the range of 10000 to 50000 nM.

The test is the same for the next values; noted with them: compounds of Table 3 (Table 8).
In the case of `N#Cc1ccc(CN2CCC(NC(=O)c3cnc(OC4CCN(c5ccc(C(F)(F)F)cc5)CC4)s3)CC2)cc1` [3-23, N-(1-(4-cyanobenzyl)piperidin-4-yl)-2-(1-(4-(trifluoromethyl)phenyl)piperidin-4-yloxy)thiazole-5-carboxamide], the EC50 is under 100 nM. On the same count and under the same terms, the value for `O=C(c1ccncc1)N1CC2CC1CN2C(=O)c1nc2ccc(OC3CCN(c4ccc(C(F)(F)F)cc4)CC3)cc2o1` (stereo not shown) [3-11, (5-isonicotinoyl-2,5-diazabicyclo[2.2.1]heptan-2-yl)(6-(1-(4-(trifluoromethyl)phenyl)piperidin-4-yloxy)benzo[d]oxazol-2-yl)methanone] was 100 to 1000 nM.

Still in this test, the particulars now being: compounds of Table 5 (Table 10).
`N#Cc1ccc(CN2CCC(Oc3ccc(C(=O)NC4CCN(Cc5ccccc5)CC4)c(Cl)c3)CC2)cc1` [5-51, N-(1-benzylpiperidin-4-yl)-2-chloro-4-(1-(4-cyanobenzyl)piperidin-4-yloxy)benzamide]: the EC50 was under 1000 nM.

Regarding `COc1cc(C(=O)NC2CCN(Cc3ccccc3)CC2)ccc1OC1CCN(S(C)(=O)=O)CC1` [5-9, N-(1-benzylpiperidin-4-yl)-3-methoxy-4-(1-(methylsulfonyl)piperidin-4-yloxy)benzamide], the EC50 is 20000 to 50000 nM. Same read-out and setting: the value for `N#Cc1ccc(CN2CCC(Oc3ccc(C(=O)NC4CCN(Cc5ccc(Cl)cc5)CC4)cc3F)CC2)cc1` [5-70, N-(1-(4-chlorobenzyl)piperidin-4-yl)-4-(1-(4-cyanobenzyl)piperidin-4-yloxy)-3-fluorobenzamide] was under 1000 nM; that for `CC(C)(C)OC(=O)N1CCC(Oc2ccc(C(=O)NC3CCN(Cc4ccccc4)CC3)cc2F)CC1` [5-92, tert-butyl 4-(4-(1-benzylpiperidin-4-ylcarbamoyl)-2-fluorophenoxy)piperidine-1-carboxylate] was 1000 to 10000 nM; that for `Cc1ccc(CN2CCC(Oc3ccc(C(=O)NC4CCN(Cc5ccc(Cl)cc5)CC4)cc3F)CC2)cc1` [5-73, N-(1-(4-chlorobenzyl)piperidin-4-yl)-3-fluoro-4-(1-(4-methylbenzyl)piperidin-4-yloxy)benzamide] was under 1000 nM. Still for that read-out and setting: the result for `N#Cc1ccc(N2CCC(Oc3ccc(C(=O)NC4CCN(Cc5ccccc5)CC4)c(Cl)c3)CC2)cc1` [5-49, N-(1-benzylpiperidin-4-yl)-2-chloro-4-(1-(4-cyanophenyl)piperidin-4-yloxy)benzamide] reads under 1000 nM; that for `N#Cc1cccc(CN2CCC(Oc3cccc(C(=O)NC4CCN(Cc5ccccc5)CC4)c3)CC2)c1` [5-89, N-(1-benzylpiperidin-4-yl)-3-(1-(3-cyanobenzyl)piperidin-4-yloxy)benzamide], 1000 to 10000 nM; that for `CC(C)(C)OC(=O)N1CCC(NC(=O)c2ccc(OC3CCN(c4ccc(C(F)(F)F)cc4)CC3)c(F)c2)CC1` [5-26, tert-butyl 4-(3-fluoro-4-(1-(4-(trifluoromethyl)phenyl)piperidin-4-yloxy)benzamido)piperidine-1-carboxylate], under 1000 nM.

As for `N#Cc1ccc(CN2CCC(Oc3ccc(C(=O)NC4CCNCC4)cc3)CC2)cc1` [5-79, 4-(1-(4-cyanobenzyl)piperidin-4-yloxy)-N-(piperidin-4-yl)benzamide], the EC50 is over 100000 nM. On the same count and under the same terms, the result for `COc1cc(C(=O)NC2CCN(Cc3ccccc3)CC2)ccc1OC1CCN(Cc2ccccc2)CC1` [5-2, N-(1-benzylpiperidin-4-yl)-4-(1-benzylpiperidin-4-yloxy)-3-methoxybenzamide] reads under 1000 nM.
